Test results reported in US20110010780A1, “KCNN3 AS DIAGNOSTIC AND THERAPEUTIC TARGET FOR NEURODEGENERATIVE DISEASES” (EVOTEC NeuroSciences GmbH, priority 2005, published 2011).

Tests used:
SK-channels = details: all SK-channels, rather unspecifically; cited from earlier work
KCNN3 [1] = molecular target: T1, KCNN3 (Homo sapiens, UniProt Q9UGI6, DUP76-80); experiment: Z′-value assessment of the cellular KCNN3 screening assay with fluoxetine; assay type: cell-based; details: CHO-KCNN3 cells, 100 μM fluoxetine, ionomycin 500 nM
T1 construct: expressed in transfected cells
Experimental: The difference of the fluorescence intensity before addition of ionomycin and after the 120 seconds incubation period was determined where the cells were incubated with fluoxetine. The influx of calcium mediated by ionomycin leads to an opening of the channels and a subsequent hyperpolarization of the resting membrane potential of the cells. […] The mean value of the difference of the fluorescence in presence of ionomycin and fluoxetine in the above experiment is 15912 rfu (standard deviation 3636 rfu) and the mean value of the fluorescence of cells in presence of ionomycin only is 124086 rfu (standard deviation 12615 rfu). The Z′-value is calculated to be 0.55. The Z′ in a second series of experiments was determined to be 0.59.
In order to optimize the KCNN3 assay for screening purposes the Z′-value was assessed (FIG. 16). After 24 hours of incubation the medium was removed from a 384-well plate where CHO-KCNN3 cells were grown. 20 μl dye solution in assay buffer was pipetted onto the cells and afterwards another 20 μl assay buffer only or 20 μl assay buffer plus 100 μM fluoxetine was added. After 30 minutes of incubation at 37 ° C. the plate was transferred to the automated pipetting device/fluorescence reader (FlexStation, Molecular Devices) and 10 μl ionomycin was added at a final concentration of 500 nM. Fluorescence was then measured for 120 sec every 10 sec. […]

[2] = tested on: CHO wild type cells (CHO/−); experiment: cellular membrane potential assay in CHO wild type cells (control cell line); assay type: cell-based
Experimental: (§1) The minimum fluorescence values during the following 5 minutes measurement period were subtracted from the maximum signal recorded at the beginning of the experiment and plotted against the concentration of the substances.
The assay makes use of membrane potential sensitive, fluorescent dyes and the activation of the calcium-sensitive KCNN3-potassium channel by the addition of ionomycin. Upon entry of calcium into the cells KCNN3 is activated and thus impacts on the resting membrane potential of the cells which is mirrored by the fluorescent dye. In more detail: CHO cells expressing KCNN3 are cultured on black 384-well plates with clear bottom at a density of 1.5.104 for 24 hours in a humidified incubator at 37° C. The cell culture medium is replaced with assay buffer (1 mM KCl, 2.3 mM CaCl2, 5 mM NaHCO3, 1 mM MgCl2, 154 mM NaCl, 5.5 mM d(+)-glucose, 5 mM HEPES, pH 7.4) containing 5 μM DiBAC4(3). After 30 min of cell loading with the dye at 37° C. fluorescence (excitation 488 nm, emission 538 nm) is read by using a fluorescence plate reader (Flex-station, Molecular Devices). Activation of KCNN3 is achieved by the addition of ionomycin at a 1μM final concentration (FIGS. 14 and 15). […] Fluorescence is monitored for a period of 5 min.

KCNN3 [3] = molecular target: T1, KCNN3; experiment: cellular KCNN3 screening assay (membrane potential dye DiBAC4(3), ionomycin activation) in CHO/KCNN3 cells; assay type: cell-based; details: incubated 30 minutes before ionomycin (1 μM final), fluorescence over 5 minutes
Experimental: Upon entry of calcium into the cells the potassium channel is activated and thus impacts on the resting membrane potential of the cells which is mirrored by the fluorescent dye. The minimum fluorescence values measured during the following 5 minutes period were subtracted from the maximum signal recorded at the beginning of the experiment and plotted against the concentration of the substances incubated with the cells. The values obtained in the absence and at the lowest concentrations are indicative of a fully active potassium channel which leads to a hyperpolarization of the membrane potential.
as §1
The assay makes use of membrane potential sensitive, fluorescent dyes and the activation of the calcium-sensitive KCNN3-potassium channel by the addition of ionomycin. Upon entry of calcium into the cells KCNN3 is activated and thus impacts on the resting membrane potential of the cells which is mirrored by the fluorescent dye. […] After 30 min of cell loading with the dye at 37° C. fluorescence (excitation 488 nm, emission 538 nm) is read by using a fluorescence plate reader (Flex-station, Molecular Devices). […] Fluorescence is monitored for a period of 5 min.

For c1cc2cc(c1)C[n+]1ccc(c3ccccc31)NCc1ccc(cc1)CNc1cc[n+](c3ccccc13)C2 [UCL-1684], the “block of SK-channels, potency” value (SK-channels) is listed as “lesser potency compared to the toxins”.

With CNCCC(Oc1ccc(C(F)(F)F)cc1)c1ccccc1 (stereo not shown) [fluoxetine] the “mean value of the difference of the fluorescence before addition of ionomycin and after 120 seconds” value (KCNN3 [1]; 30 minutes, standard deviation 3636 rfu) was 15912 rfu and the “block of the KCNN3 ion channel” value (KCNN3 [1]) was “the ion channel is blocked”.

For CC[N+](CC)(CC)CCOc1cccc(OCC[N+](CC)(CC)CC)c1OCC[N+](CC)(CC)CC [gallamine], the “block of SK-channels, potency” value (SK-channels) is listed as “lesser potency compared to the toxins”.

For C[C@H](CCC(=O)O)C[C@H](C)C[C@H](C)C(=O)/C=C(\O)[C@H](C)C[C@H](C)C/C=C/[C@@H](C)[C@@H](O)[C@@H](C)[C@@H](O)C[C@@H]1CC[C@@](C)([C@H]2CC[C@@](C)([C@@H](C)O)O2)O1 [ionomycin], the “effect on fluorescence (membrane potential) in CHO wild type cells” value [2] was “no effect”.

In the case of CN1CCN(CCCN2c3ccccc3Sc3ccc(C(F)(F)F)cc32)CC1 [trifluorperatine], the IC50 (KCNN3 [3]) is reported as 18 µM.

For COc1cc2c3cc1Oc1cc(ccc1O)C[C@@H]1c4c(cc(OC)c(O)c4Oc4ccc(cc4)C[C@@H]3N(C)CC2)CC[N+]1(C)C [tubocurarine], the “block of SK-channels, potency” value (SK-channels) is listed as “lesser potency compared to the toxins”.
